Results from patent US20120022070A1, “Heat Shock Protein 90 Inhibitors, Methods Of Preparing Same, And Methods For Their Use” (EMORY UNIVERSITY, priority 2008, published 2012).
pIC50: −log10 of the molar value. Read-outs that look alike come from different tables or passages of the source.

How the values were obtained:
[1] = test system: SKBR3 breast cancer cells; test: Cancer cell growth inhibition assay (CellTiter-Blue); assay type: cell-based; conditions: Homo sapiens, SK-BR-3, Table 2, 96 hours
Method: The effects of the compounds on cancer cell growth were determined using the CellTiter-Blue cell viability assay (Promega). CellTiter-Blue® Cell Viability is based on the ability of living cells to convert a redox dye (resazurin) into a fluorescent end product (resorufin).
The SKBR3 breast cancer cells were plated in 384-well microtiter plates (Costar) and allowed to attach overnight. After treatment with either compounds or vehicle (DMSO) for 96 hours, the cells were measured for their viability by CellTiter-Blue. Briefly, 10 μl of CelTiter-Blue were added to each well in 384-well plates and incubated at 37° C. for 4 hours. The fluorescence intensity (FI) was measured using the Analyst HT plate reader (Molecular Devices) with an excitation at 545 nm and emission at 595 nm. The IC50 was calculated as the compound concentration that inhibits cell viability by 50% compared with vehicle control wells. The IC50 values were determined as described above.

[2] = test system: tumor specific Hsp90 (NCI-N417 cell lysate); test: Hsp90 binding FP competition assay; design: species or system human; conditions: Table 2, GM-cy3B 5 nM
Source text: There are several assays that have been developed to identify novel Hsp90 inhibitors based on the interaction of small molecules with recombinant Hsp90 protein, either yeast or human. To measure a therapeutically significant state of Hsp90, an FP assay that uses human cancer cell lysates instead of recombinant protein (Du, Moulick et al. J. Biomol. Screen, 2007, 12, 915-24) was utilized. It probes the interaction of small molecules with tumor-specific Hsp90 and may therefore lead to inhibitors that are not only selective for cancer cells but also specific for a particular malignancy.
The dose-response effect of the compounds was tested in Hsp90 binding FP competition assays to obtain the IC50 of the compounds. The Hsp90 FP competition assay was performed in 384-well black plate using the small-cell lung carcinoma (SCLC) cell line NCI-N417 as a source of tumor specific Hsp90 and the Cy3B-labeled geldanamycin (GM-cy3B) as the FP ligand. The compound was dissolved in DMSO and added at several concentrations to the reaction buffer containing both GM-cy3B (5 nM) and NCI-N417 cell lysate (1 μg/well) in a final volume of 50 μL. Free GM-cy3B (5 nM) and bound GM-cy3B with NCI-N417 cell lysate (5 nM GM-cy3B and 1 μg/well of NCI-N417 cell lysate) were included as controls in each plate. After incubating at room temperature for 2 to 16 hours, the polarization values were measured and expressed as millipolarization (mP) units using Analyst HT plate reader (Molecular Devices). The competitive efficiency of the compounds were expressed as a percentage of control and calculated according to the following equation:
% of control=((mPc−mPf)/(mPb−mPf))×100
where mPc is the recorded mP from compound wells, mPf is the average recorded mP from GM-cy3B-only wells, and mPb is the average recorded mP from wells containing both GM-cy3B and NCI-N417 lysate. IC50 values were determined using a nonlinear regression analysis as implemented in Prism 4.0 (Graphpad Software).

[3] = test system: Her2 protein in MCF-7 breast cancer cells; test: Cell-based Her2 degradation assay by Western Blot; conditions: Homo sapiens, read-out: IC50, Her2 degradation WB
Source text: Addition of Hsp90 inhibitors to cancer cells induces the proteasomal degradation of a subset of proteins involved in signal transduction such as Raf1 kinase, Akt and certain transmembrane tyrosine kinases such as Her2. Thus, Her2 degradation in cells is a functional read-out of Hsp90 inhibition. Correlation between Hsp90 binding and Her2 degradation in cancer cells is indicative of a selective biological effect in these cells via Hsp90.
A Western blot-based assay was used to measure the cellular level of Her2 protein in MCF-7 breast cancer cell lysates collected after 24 hours of compound treatment. […] Then 2×10^5 cells were seeded in 24 well plates in 500 μl PRMI1640 medium and allowed to attach overnight. The compounds were dissolved in DMSO, added to the wells, and incubated for 24 hours. The cells were washed using ice-cold phosphate-buffered saline (PBS) and lysed in 1% NP40 lysis buffer (10 mM HEPES, pH 7.4, 150 mM NaCl, 1% Nonident P-40, 5 mM Pyrophosphate, 5 mM NaF, 2 mM Orthovanadate, 10 ug/ml Aprotinin, 10 ug/ml Leupeptin, 1 mM PMSF). After boiling with 6×SDS sample buffer, the cell lysates were separated by SDS-PAGE and transferred to nitrocellulose membrane. The membranes were blocked with 5% milk in tris-buffered saline buffer.

[4] = test system: Her2 protein in SKBr3 breast cancer cells; test: Cell-based Her2 degradation assay by Cytoblot; conditions: Homo sapiens, SK-BR-3, Table 2, values with asterisk, 24 hours
Method: Cellular Her2 level after compound treatment was also monitored by microtiter-based Her2 degradation assay, Cytoblot assay (Huezo, Vilenchik et al. Chem. Biol., 2003, 10, 629-634). This is a cell-based assay that enables the quantitative analysis of intracellular levels of Her2 protein.
The human breast cancer cell lines SKBr3 were maintained in RPMI1640 medium supplemented with 10% FBS. 3000 cells in 100 μl of growth medium were plated per well in black, clear-bottom microtiter plates (Corning) and allowed to attach for at least 24 hours at 37° C. and 5% CO2. Compounds at different doses or vehicle (DMSO) were carefully added to the wells and incubated for 24 hours. The cells were washed twice with ice-cold Tris buffer saline (TBS) containing 0.1% Tween 20 (TBST) and fixed with ice-cold methanol. After washing with TBST, the plate was incubated at RT for 1 hour with SuperBlock (Pierce 37535) and overnight at 4° C. with the anti-Her-2 antibody (Santa Cruz Biotechnology). The plate was then washed with TBST and incubated at RT for 2 hours with an anti-rabbit HRP-linked antibody (Sigma A0545). The chemiluminescent substrate solution (Pierce 38040) was added and the plate was read 5 minutes later in an Analyst HT plate reader (Molecular Devices). Luminescence readings resulting from compound-treated cells versus untreated cells (vehicle treated) were quantified and plotted against compound concentrations to give the IC50 values (defined as concentration of compound required to degrade 50% of total Her2).

[5] = MCF7, Table 2, values without asterisk, MCF-7 cells, 24 hours

SMILES	pIC50 [1]	pIC50 [2]	pIC50 ([3]; MCF7, 24 h)	pIC50 [4]	pIC50 [3, 5]
COc1ccc(NC2=CC(=O)C(=O)c3ccccc32)cc1 [Compound 51]	4.80	7.15	5.60 to 5.90	5.44	
COc1ccc(S(=O)(=O)N2CCN(C3=CC(=O)C(=O)c4ccccc43)CC2)cc1OC [Compound 64]	< 4.70	6.24		4.54	
O=C1C=C(N2CCN(Cc3cccc(C(F)(F)F)c3)CC2)c2ccccc2C1=O [Compound 56]	6.52	6.28		5.72	
O=C1C=C(Nc2ccc3c(c2)OCO3)c2ccccc2C1=O [Compound 55]	5.50	7.40		5.42	5.30 to 5.60
COc1cc(NC2=CC(=O)C(=O)c3ccccc32)cc(OC)c1OC [Compound 60]	5.62	6.74		5.07	
O=C1C=C(N2CCC(Cc3ccccc3)CC2)c2ccccc2C1=O [Compound 45]	6.02	6.64		5.65	5.60 to 5.90
O=C1C=C(N2CCC(O)(c3ccc(Cl)cc3)CC2)c2ccccc2C1=O [Compound 58]	6.37	6.27		5.77	
COc1ccccc1NC1=CC(=O)C(=O)c2ccccc21 [Compound 50]	5.91	7.05		5.42	5.60 to 5.90
O=C1C=C(Nc2cc3c(cc2Br)OCO3)c2ccccc2C1=O [Compound 65]	5.44	6.28		4.81	
COc1cc(NC2=CC(=O)C(=O)c3ccccc32)cc(OC)c1 [Compound 54]	5.13	8.00		5.38	5.30 to 5.60
O=C1C=C(N2CCN(Cc3cccc4ccccc34)CC2)c2ccccc2C1=O [Compound 59]	6.21	6.11		5.37	
O=C1C=C(N2CCN(S(=O)(=O)c3cc(Cl)cc(Cl)c3O)CC2)c2ccccc2C1=O [Compound 63]	< 4.70	5.88		4.58	
COc1ccc(NC2=CC(=O)C(=O)c3ccccc32)cc1OC [Compound 61]	5.50	6.41		5.32	
COc1cc(Br)c(NC2=CC(=O)C(=O)c3ccccc32)cc1OC [Compound 66]	4.96	6.21		4.65	
CC(C)CN(CC(C)C)C1=CC(=O)C(=O)c2ccccc21 [Compound 49]	5.56	5.73		4.73	5.30 to 5.60
COc1ccc(NC2=CC(=O)C(=O)c3ccccc32)c(OC)c1 [Compound 53]	5.85	6.89		5.40	5.30 to 5.60
O=C1C=C(N2CCNCC2)c2ccccc2C1=O [Compound 62]	< 4.70	5.81		4.64	
